Test results published in patent publication US10596150B2, “Antifungal agents” (F2G LIMITED, priority 2014, dated 2020).
Values after ≈ are worked out from the molar mass of the structure shown.

What was measured:
[1] = test system: A. fumigatus strain A1163; assay: Murine survival model of Aspergillus fumigatus infection (survival, kidney burden, serum galactomannan); type: in vivo, male CD-1 mice; settings: for serum galactomannan indices: FIG. 6; for End of study tissue burden (kidney): surviving animals; for survival at end of study: therapy from 24 h post infection for 8 days
Description: Murine survival models are frequently used to assess the efficacy of antifungal drugs against Aspergillus. The models used in the development of Example 1 were carried out at Euprotec Ltd (Manchester) a contract research organisation (CRO) with extensive experience in the evaluation of antifungal drugs. The typical model involves the use of groups of 6-10 male CD-1 mice per treatment group. Mice are immunosuppressed with 200 mg/kg cyclophosphamide injected intraperitoneal 3 days prior to infection. A. fumigatus strain A1163 is cultured on Sabourauds agar for 4-6 days at 35° C. Spores are harvested in phosphate buffered saline (PBS)/Tween, the suspension diluted and the number of spores enumerated. Mice are then infected with an intravenous injection of A. fumigatus spores given through the lateral tail vein. The typical inoculum is 6-8×10^4 cfu/mouse and is sufficient to kill all untreated animals by Day 4-6. The animals die of IA and Aspergillus organisms can be detected in many body tissues. Treatment is typically commenced soon after infection but delays of up to 24 h following infection produce a more challenging model. Treatment is continued for 7-9 days. Treatment may be up to 3 times daily using an oral dosing. Following cessation of treatment, animals are observed for 1-2 days, and then sacrificed. Relevant controls treated with oral drug-free vehicle are always included; ideally there should be no survivors in this group. A positive control consisting of an antifungal drug such as Reference Example 10 was used. This compound consistently produces 100% survival at doses of 10 mg/kg b.i.d. dosed by the oral route. Most models are run as temporary neutropenic models where only a single dose of cyclophosphamide is administered.
The fungal burden in the kidney can be determined on animals surviving to the end of the study and this can help provide efficacy discrimination between groups where all animals survive. Tissue burdens are carried out by removing the kidneys from animals when they are culled at the end of the study. These are homogenised in saline and plated onto Sabourauds agar and incubated at 35° C. for 72 h. Aspergillus colonies are counted and the amount of aspergillus per gram of kidney calculated. The results are expressed as colony forming units per gramme (cfu/g). […] However, data from studies where tissue burden has been carried out on untreated animals at day 4 or 5 has shown that tissue burdens are typically in excess of 20,000 cfu/g and may exceed 100,000 cfu/g in some studies.
In some of the survival studies described below serum samples were collected from surviving mice at the end of the study or on mice that succumbed to infection during the study to examine the effect of Example 1 on galactomannan levels and to see if there was a relationship between galactomannan levels and survival.
The galactomannan assays were carried out on serum samples that had been stored frozen at −80° C. Samples were thawed and assayed using a Platelia Aspergillus Ag enzyme-linked immunosorbent assay (ELISA) kit (Biorad). The assay was modified slightly to take into account the small sample volumes available from mice. If assay results were high a repeat test was carried out on a sample diluted in normal mouse serum. The amount of galactomannan in a sample is presented as a galactomannan index. The mean galactomannan index for each group was calculated and is presented graphically against each treatment regimen.
The survival study carried assessed the dose response of Example 1. Example 1 was dosed orally to A. fumigatus infected mice at 2 dose levels 10 mg/kg b.i.d. and 3 mg/kg b.i.d. Therapy was initiated at 24 h post infection and therapy continued for 8 days. At the end of the study kidney burdens were measured on surviving animals. In addition serum samples were taken at the end of the study from all surviving animals and from each animal that died during the course of the study. […]

A. flavus = assay: Minimum Inhibitory Concentration (MIC), RPMI medium; type: cell-based; settings: Aspergillus flavus, >80% growth inhibition
Description: (§1) Between 1 and 5 mgs of the compound were accurately weighed out into a sterile Eppendorf tube. The compound was dissolved in DMSO to give a solution containing 5 mg/mL. Tubes were stored at −20° C. until required.
(§2) On the day of testing thawed solutions were vortex mixed to ensure homogeneity. 30 μL of solution was removed and added to 570 μL of sterile water in a separate sterile Eppendorf. The thoroughly mixed solution was used to prepare a series of doubling dilutions in water, in a deep well plate. Thirteen replicate plates were prepared using a Minitrak by aspirating 20 μL from each well into eleven clear polystyrene 96 well plates.
(§3) Spores of Aspergillus and Scedosporium were harvested from cultures grown on Sabarauds agar for 5 days, and resuspended in PBS/Tween 80 to approx 1×10^7 cfu/mL. Each organism suspension was diluted in RPMI medium, containing 2% glucose and 0.135 M MOPS buffer (pH 7.0) to 0.5-2×10^4 cfu/mL. 80 μL of an organism suspension was added to each well of the plate containing drug dilutions.
(§4) This produced MIC plates with a drug range 50-0.05 mg/L and organism inocula of 1-2×10^4 cfu/mL. All plates were incubated for 24-48 h at 35° C. Growth was assessed by monitoring the optical density at 485 nm for each well. The MIC of a compound is the lowest drug concentration that inhibits growth of an organism by >80% compared with a drug free control.

[2] = test system: Scedosporium prolifican 7935; assay: as above; type: cell-based
Description: as §1, §2, §3, §4

[3] = test system: Scedosporium prolifican 8353; assay: as above; type: cell-based
Description: as §1, §2, §3, §4

A. niger = assay: as above; type: cell-based; settings: Aspergillus niger, >80% growth inhibition
Description: as §1, §2, §3, §4

[4] = test system: Scedosporium prolifican 13486; assay: as above; type: cell-based
Description: as §1, §2, §3, §4

[5] = test system: Scedosporium species 15849; assay: as above; type: cell-based
Description: as §1, §2, §3, §4

[6] = test system: Scedosporium prolifican 15848; assay: as above; type: cell-based
Description: as §1, §2, §3, §4

[7] = test system: Scedosporium apiospermum 451; assay: as above; type: cell-based
Description: as §1, §2, §3, §4

[8] = test system: Scedosporium prolificans 6322; assay: as above; type: cell-based; settings: Lomentospora prolificans
Description: as §1, §2, §3, §4

Scedos apiospermum 1124 = assay: as above; type: cell-based; settings: Scedosporium apiospermum
Description: as §1, §2, §3, §4

[9] = test system: Scedosporium apiospermum 13486; assay: as above; type: cell-based
Description: as §1, §2, §3, §4

[10] = test system: Scedosporium apiospermum 15848; assay: as above; type: cell-based
Description: as §1, §2, §3, §4

[11] = test system: Scedosporium prolifican 451; assay: as above; type: cell-based
Description: as §1, §2, §3, §4

[12] = test system: Scedosporium prolificans 18389; assay: as above; type: cell-based; settings: Lomentospora prolificans
Description: as §1, §2, §3, §4

L. prolificans FMR 3569 = assay: Lomentospora prolificans FMR 3569 disseminated infection model (survival, tissue burden); type: in vivo, Male OF-1 mice; settings: VRC 25 mg/kg p.o. QD; Example 1 20 mg/k p.o. BID; from day 1 after challenge for 9 days
Description: L. prolificans (also known as Scedosporium prolificans or S. prolificans) was grown on Potato Dextrose Agar (PDA) for 5 days at 35° C. On the day of infection, cultures were flooded with sterile saline and filtered through sterile gauze to remove clumps of conidia and hyphae. The resulting suspensions were adjusted by haemocytometer count and by serial plating to confirm viability.
Male OF-1 mice with a mean weight of 30 g were used in the experiment. Mice were housed in standard boxes with food and water ad libitum.
Mice were rendered neutropenic two days prior to infection by an intraperitoneal (i.p.) injection of 200 mg/kg of cyclophosphamide, and once every 5 days thereafter (Clemons et al, 2005).
Mice were challenged with 5×10^4 CFU/animal of L. prolificans FMR 3569, in a volume of 0.2 ml of sterile saline into the lateral tail vein.
Treatments consisted of (a) voriconazole (VRC) (Vfend; Pfizer S. A., Madrid, Spain) at 25 mg/kg p.o, by gavage QD; (b) Example 1 at 20 mg/k, p.o, by gavage BID; and (c) no treatment. From 3 days before infection, mice that received VRC were given grapefruit juice instead of water (Sugar & Liu, 2001). All treatments began 1 day after challenge, and the therapy lasted for 9 days. Controls received no treatment.
For survival studies groups of 10 mice were randomly established for each therapy. Mortality was recorded daily until the end of the experiment. […]

## Cc1cc(-c2ccccc2)c(C(=O)C(=O)Nc2ccc(N3CCN(c4ncc(F)cn4)CC3)cc2)n1C [Example 1, 2-(1,5-dimethyl-3-phenyl-1H-pyrrol-2-yl)-N-(4-(4-(5-fluoropyrimidin-2-yl)piperazin-1-yl)phenyl)-2-oxoacetamide]
[1]; 3 mg/kg b.i.d. oral, similar magnitude to untreated animals
  serum galactomannan indices: correspondingly high
[1]; 3 mg/kg b.i.d. oral
  End of study tissue burden (kidney): 3021 cfu/gm
  survival at end of study: 10%
[1]; 10 mg/kg b.i.d. oral
  serum galactomannan indices: very low
  End of study tissue burden (kidney): 1114 cfu/gm
  survival at end of study: 100%
A. flavus
  MIC: 0.005 to 0.01 µg/mL (≈ 0.01 to 0.0201 µM)
[2]
  MIC: 0.01 to 0.02 µg/mL (≈ 0.0201 to 0.0401 µM)
[3]
  MIC: 0.005 to 0.01 µg/mL (≈ 0.01 to 0.0201 µM)
A. niger
  MIC: 0.01 to 0.02 µg/mL (≈ 0.0201 to 0.0401 µM)
[4]
  MIC: 0.02 to 0.04 µg/mL (≈ 0.0401 to 0.0802 µM)
[5]
  MIC: 0.04 to 0.06 µg/mL (≈ 0.0802 to 0.12 µM)
[6]
  MIC: 0.02 to 0.04 µg/mL (≈ 0.0401 to 0.0802 µM)
[7]
  MIC: 0.005 to 0.01 µg/mL (≈ 0.01 to 0.0201 µM)
[8]
  MIC: 0.02 to 0.04 µg/mL (≈ 0.0401 to 0.0802 µM)
Scedos apiospermum 1124
  MIC: ≤ 0.005 µg/mL
[9]
  MIC Scedosporium apiospermum 13486: D (A grade of D represents an MIC of greater than 0.02 mg/L but less than or equal to 0.04 mg/L)
[9]; Scedosporium apiospermum, 13486
  MIC: 0.02 to 0.04 µg/mL (≈ 0.0401 to 0.0802 µM)
[10]
  MIC: 0.02 to 0.04 µg/mL (≈ 0.0401 to 0.0802 µM)
[11]
  MIC: 0.005 to 0.01 µg/mL (≈ 0.01 to 0.0201 µM)
[12]
  MIC: 0.01 to 0.02 µg/mL (≈ 0.0201 to 0.0401 µM)
L. prolificans FMR 3569
  survival rates compared with the control (FIG. 7): improved survival rates
